According to patent US20170165286A1, “COMPOSITIONS AND METHODS FOR TREATING DIABETES AND LIVER DISEASES” (Cempra Pharmaceuticals, Inc., priority 2014, published 2017):

Experiments:
STAM mice = test: STAM model: HE staining, NAFLD Activity score; format: in vivo; conditions: for NAFLD Activity Score: 5-9 wks
Method: (§1) NASH-HCC (STAM™) Model. C57BL/6 (15-day-pregnant female) mice are obtained from Charles River Laboratories Japan (Kanagawa, Japan). Male pups are selected for the study. NASH is induced in male mice by a single subcutaneous injection of 200 μg streptozotocin (STZ, Sigma-Aldrich, USA) solution 2 days after birth, followed by feeding a HFD (57 kcal % fat, cat#: HFD32, CLEA Japan, Japan) beginning at 4 weeks of age. At 5 weeks of age, mice are divided into a control group and one or more treated group (generally 8 mice per group). Animals are sacrificed at 9 weeks of age, and biochemical, histological, and gene expression analyses are performed.
(§2) During weeks 5-9 (starting at day 35±2), test compound is administered (generally orally) at various doses diluted to 10 mL/kg and according to various dosing protocols to treatment groups (8 mice each) while a second group (8 mice) is administered vehicle only. Animals are sacrificed at 9 weeks.
Histopathological analyses. For HE staining, sections are cut from paraffin blocks of left lateral liver tissue prefixed in Bouin's solution and stained with Lillie-Mayer's Hematoxylin (Muto Pure Chemicals, Japan) and eosin solution (Wako Pure Chemical Industries). NAFLD Activity score (NAS) is calculated according to the criteria of Kleiner (Kleiner D E. et al., Hepatology, 2005; 41:1313). A NAS≧5 with steatosis and hepatocyte ballooning is generally considered diagnostic of NASH.
(§3) Illustrative dose response test groups. Group 1-Normal. Eight normal mice are fed with a normal diet ad libitum without any treatment until 9 weeks of age. Group 2-Vehicle. Eight NASH mice are orally administered vehicle (0.5% w/v methylcellulose+0.2% Tween®80) in a volume of 10 mL/kg twice daily from 5 to 9 week of age. Group 3-solithromycin 5 mg/kg. Eight NASH mice are orally administered vehicle supplemented with solithromycin at a dose of 5 mg/kg in the morning and the vehicle in the evening (5 mg/kg/day) from 5 to 9 weeks of age. Group 4-solithromycin 10 mg/kg. Eight NASH mice are orally administered vehicle supplemented with solithromycin at a dose of 10 mg/kg twice daily (20 mg/kg/day) from 5 to 9 weeks of age. Group 5-solithromycin 25 mg/kg. Eight NASH mice are orally administered vehicle supplemented with solithromycin at a dose of 25 mg/kg twice daily (50 mg/kg/day) from 5 to 9 weeks of age. Group 6-solithromycin 50 mg/kg. Eight NASH mice are orally administered vehicle supplemented with solithromycin at a dose of 50 mg/kg once daily (50 mg/kg/day) from 5 to 9 weeks of age.

[1] = test system: liver mRNA expression levels; test: STAM model: quantitative RT-PCR of liver; format: in vivo, mice
Method: as §1, §2, §3
Quantitative RT-PCR. Total RNA is extracted from liver samples using RNAiso (Takara Bio, Japan) according to the manufacturer's instructions. One μg of RNA is reverse-transcribed using a reaction mixture containing 4.4 mM MgCl2 (Roche, Switzerland), 40 U RNase inhibitor (Toyobo, Japan), 0.5 mM dNTP (Promega, USA), 6.28 μM random hexamer (Promega), 5× first strand buffer (Promega), 10 mM dithiothreitol (Invitrogen) and 200 U MMLV-RT (Invitrogen) in a final volume of 20 μL. The reaction is carried out for 1 hour at 37° C., followed by 5 minutes at 99° C. Real-time PCR is performed using real-time PCR DICE and SYBR premix Taq (Takara Bio). To calculate the relative mRNA expression level, the expression of each gene is normalized to that of reference gene 36B4 (gene symbol: Rplp0). PCR-primer sets are described in copending U.S. provisional application No. 62/086,911, the disclosure of which is incorporated herein by reference.

human FXR = test: FXR reporter cell assays (agonist and antagonist); format: cell-based; conditions: reporter cells, from 30 μM, 1:3 dilutions
Method: FXR Signal Pathway. […] Solithromycin is tested in reporter cell assays expressing a hybrid FXR receptor (Indigo Biosciences, PA). Agonist and antagonist activity is measured. Solithromycin is tested starting at 30 μM and continuing with 1:3 dilutions. […] Without being bound by theory, it is believed herein that dependence upon the FXR pathway for activity in treating the diseases described herein may lead to increased triglycerides (TGs) and low density lipids (LDL) as an unwanted side effects. For example, patients with various forms of FLD may be at risk for cardiovascular disease, which may be aggravated by increased triglycerides and low density lipids.

[2] = STAM mice liver, 5 mg/kg, listed as SOLI
[3] = STAM mice liver, 10 mg/kg, listed as SOLI
[4] = STAM mice liver, 25 mg/kg, listed as SOLI

Structure (SMILES): CC[C@H]1OC(=O)[C@@](C)(F)C(=O)[C@H](C)[C@@H](O[C@@H]2O[C@H](C)C[C@H](N(C)C)[C@H]2O)[C@](C)(OC)C[C@@H](C)C(=O)[C@H](C)[C@H]2N(CCCCn3cc(-c4cccc(N)c4)nn3)C(=O)O[C@]12C [solithromycin]
- NAFLD Activity Score (STAM mice; 5 mg/kg q.d. oral, 5 mg/kg): no statistically significant difference
- NAFLD Activity Score (STAM mice; 5 mg/kg q.d. oral, listed as Solithromycin, 5 mg/kg): 4.8 ± 0.9
- NAFLD Activity Score (STAM mice; 10 mg/kg b.i.d. oral, 10 mg/kg): significantly decreased
- NAFLD Activity Score (STAM mice; 10 mg/kg b.i.d. oral, listed as Solithromycin, 10 mg/kg): 3.3 ± 0.9
- NAFLD Activity Score (STAM mice; 25 mg/kg b.i.d. oral, 25 mg/kg): significantly decreased
- NAFLD Activity Score (STAM mice; 25 mg/kg b.i.d. oral, listed as Solithromycin, 25 mg/kg): 2.9 ± 1.0
- NAFLD Activity Score (STAM mice; 50 mg/kg q.d. oral, 50 mg/kg): significant reduction
- NAFLD Activity Score (STAM mice; 50 mg/kg q.d. oral, listed as Solithromycin, 50 mg/kg): 3.0 ± 0.9
- Hepatocellular ballooning and inflammatory cell infiltration compared to vehicle group (STAM mice; Groups 4-6): significant improvements
- Col1a2/36B4 relative mRNA expression ([1]; STAM mice liver, 5 mg/kg): 3.6 ± 1.7
- FBPase/36B4 relative mRNA expression ([1]; STAM mice liver, 5 mg/kg): 1.2 ± 0.2
- G6pc/36B4 relative mRNA expression ([1]; STAM mice liver, 5 mg/kg): 3.0 ± 0.7
- Gck/36B4 relative mRNA expression ([1]; STAM mice liver, 5 mg/kg): 0.5 ± 0.2
- Glut 2/36B4 relative mRNA expression ([1]; STAM mice liver, 5 mg/kg): 0.8 ± 0.1
- MCP-1/36B4 relative mRNA expression ([1]; STAM mice liver, 5 mg/kg): no statistically significant differences
- MMP-9/36B4 relative mRNA expression ([1]; STAM mice liver, 5 mg/kg): no statistically significant differences
- Pck1/36B4 relative mRNA expression ([1]; STAM mice liver, 5 mg/kg): 1.5 ± 0.1
- TGF-β/36B4 relative mRNA expression ([1]; STAM mice liver, 5 mg/kg): 2.1 ± 0.4
- TNF-α/36B4 relative mRNA expression ([1]; STAM mice liver, 5 mg/kg): 3.1 ± 1.2
- Timp-1/36B4 relative mRNA expression ([1]; STAM mice liver, 5 mg/kg): 16.0 ± 15.7
- α-SMA/36B4 relative mRNA expression ([1]; STAM mice liver, 5 mg/kg): 3.8 ± 1.9
- MCP-1/36B4 relative mRNA expression [1, 2]: 7.2 ± 4.0
- MMP-9/36B4 relative mRNA expression [1, 2]: 2.9 ± 0.8
- Col1a2/36B4 relative mRNA expression ([1]; STAM mice liver, 10 mg/kg): 2.8 ± 1.0
- FBPase/36B4 relative mRNA expression ([1]; STAM mice liver, 10 mg/kg): 1.2 ± 0.2
- G6pc/36B4 relative mRNA expression ([1]; STAM mice liver, 10 mg/kg): 2.4 ± 0.5
- Gck/36B4 relative mRNA expression ([1]; STAM mice liver, 10 mg/kg): 0.4 ± 0.2
- Glut 2/36B4 relative mRNA expression ([1]; STAM mice liver, 10 mg/kg): tended to down-regulated
- MCP-1/36B4 relative mRNA expression ([1]; STAM mice liver, 10 mg/kg): no statistically significant differences
- MMP-9/36B4 relative mRNA expression ([1]; STAM mice liver, 10 mg/kg): no statistically significant differences
- Pck1/36B4 relative mRNA expression ([1]; STAM mice liver, 10 mg/kg): 1.5 ± 0.4
- TGF-β/36B4 relative mRNA expression ([1]; STAM mice liver, 10 mg/kg): 1.8 ± 0.4
- TNF-α/36B4 relative mRNA expression ([1]; STAM mice liver, 10 mg/kg): 3.0 ± 0.7
- Timp-1/36B4 relative mRNA expression ([1]; STAM mice liver, 10 mg/kg): 11.9 ± 6.8
- α-SMA/36B4 relative mRNA expression ([1]; STAM mice liver, 10 mg/kg): 3.7 ± 1.0
- Glut 2/36B4 relative mRNA expression [1, 3]: 0.8 ± 0.1
- MCP-1/36B4 relative mRNA expression [1, 3]: 5.2 ± 1.9
- MMP-9/36B4 relative mRNA expression [1, 3]: 3.0 ± 1.1
- Col1a2/36B4 relative mRNA expression ([1]; STAM mice liver, 25 mg/kg): 2.9 ± 1.2
- FBPase/36B4 relative mRNA expression ([1]; STAM mice liver, 25 mg/kg): Statistically significant reduced
- G6pc/36B4 relative mRNA expression ([1]; STAM mice liver, 25 mg/kg): Statistically significant reduced
- Gck/36B4 relative mRNA expression ([1]; STAM mice liver, 25 mg/kg): 0.6 ± 0.4
- Glut 2/36B4 relative mRNA expression ([1]; STAM mice liver, 25 mg/kg): 0.9 ± 0.1
- MCP-1/36B4 relative mRNA expression ([1]; STAM mice liver, 25 mg/kg): no statistically significant differences
- MMP-9/36B4 relative mRNA expression ([1]; STAM mice liver, 25 mg/kg): no statistically significant differences
- Pck1/36B4 relative mRNA expression ([1]; STAM mice liver, 25 mg/kg): 1.3 ± 0.6
- TGF-β/36B4 relative mRNA expression ([1]; STAM mice liver, 25 mg/kg): 1.8 ± 0.5
- TNF-α/36B4 relative mRNA expression ([1]; STAM mice liver, 25 mg/kg): 3.4 ± 1.3
- Timp-1/36B4 relative mRNA expression ([1]; STAM mice liver, 25 mg/kg): 11.0 ± 8.6
- α-SMA/36B4 relative mRNA expression ([1]; STAM mice liver, 25 mg/kg): 3.3 ± 1.2
- FBPase/36B4 relative mRNA expression [1, 4]: 1.0 ± 0.2
- G6pc/36B4 relative mRNA expression [1, 4]: 1.9 ± 0.7
- MCP-1/36B4 relative mRNA expression [1, 4]: 4.9 ± 1.9
- MMP-9/36B4 relative mRNA expression [1, 4]: 2.6 ± 0.5
- FBPase mRNA expression levels compared to vehicle group ([1]; STAM mice liver, all doses): significantly down-regulated
- G6pc mRNA expression levels compared to vehicle group ([1]; STAM mice liver, all doses): significantly down-regulated
- Collagen Type 1 mRNA expression levels compared to vehicle group ([1]; STAM mice liver, any doses): no significant differences
- Gck mRNA expression levels compared to vehicle group ([1]; STAM mice liver, any doses): no significant differences
- Pck1 mRNA expression levels compared to vehicle group ([1]; STAM mice liver, any doses): no significant differences
- TGF-β mRNA expression levels compared to vehicle group ([1]; STAM mice liver, any doses): no significant differences
- TIMP-1 mRNA expression levels compared to vehicle group ([1]; STAM mice liver, any doses): no significant differences
- TNF-α mRNA expression levels compared to vehicle group ([1]; STAM mice liver, any doses): no significant differences
- α-SMA mRNA expression levels compared to vehicle group ([1]; STAM mice liver, any doses): no significant differences
- Glut 2 mRNA expression levels compared to vehicle group ([1]; STAM mice liver, solithromycin groups other than 10 mg/kg): no significant differences
- MMP-9 mRNA expression levels in the liver ([1]; STAM mice, 50 mg/kg q.d., normalized vehicle 1.00±0.34): 0.59±0.25
- MCP-1 mRNA expression levels in the liver ([1]; STAM mice, 50 mg/kg q.d., normalized vehicle 1.00±0.42): 0.64±0.14
- Agonist activity (human FXR; hybrid FXR receptor): not show agonistic activity
- Antagonist activity (human FXR; hybrid FXR receptor): nor significant antagonistic activity
- Cytotoxicity in the antagonist assays (human FXR): does not show evidence of cytotoxicity
